Seven compounds from patent EP0346760A2, “Derivatives of nigericine, methods for their preparation, compositions containing them and their use” (priority 1988, dated 1989) can be followed below.

The structures appear in SMILES notation. ≈ marks a conversion by molar mass, not a printed value. Where two headings read alike, the source gives them in different places.

Common to all, as to type: cell-based
The test system of data set [1] is Staph. aureus (285). Put plainly: Agar dilution test (Lorian), antibacterial activity. The following applies: Staphylococcus aureus. As to the method: (§1) Die antibakterielle Wirksamkeit der erfindungsgemäßen Verbindungen wurde im Agar-Verdünnungstest nach Lorian (Antibiotics in Laboratory Medicine, Williams & Wilkins, Baltimore/London, 1980) bestimmt. Dabei wurden die Präparate in einer geometrischen Verdünnungsreihe mit dem Faktor 2 in Müller Hinton Agar verdünnt. Eine Petrischale enthielt nur Müller Hinton Agar und diente zur Kontrolle des Bakterienwachstums. Die Petrischalen wurden dann mit einem Denley-Multipoint-Inokulator, welcher 0,6 µl einer 1 : 100 verdünnten 18-Stunden-Kultur der Testbakterien übertrug, mit den entsprechenden Testbakterien beimpft. Nach 16 bis 18 Stunden Inkubation bei 37°C wurden die Petrischalen makroskopisch auf Bakterienwachstum untersucht.
(§2) Die niedrigste Konzentration der erfindungsgemäßen Verbindungen, welche das Bakterienwachstum noch vollständig verhinderte, wurde als MIC (Minimum Inhibitory Concentration) angenommen.
(§3) In Tabelle 3 ist die Wirkung (Angabe des MIC in µg/ml) von verschiedenen erfindungsgemäßen Verbindungen gegen folgende Bakterien aufgeführt: Staph. aureus (SG 511), Staph. aureus (285), Staph. aureus (503), Strept. pyogenes (308 A), Strept. pyogenes (77 A), Strept. faecium (D). Tabelle 3

In data set [2] the test system is Staph. aureus (503). The data set is described as above. Particulars: Staphylococcus aureus. As to the method: as §1, §2, §3
In data set [3] the test system is Staph. aureus (SG 511). Described as above. Particulars: Staphylococcus aureus. On the procedure: as §1, §2, §3
In data set [4] the test system is Strept. faecium (D). The description is as above. The following applies: Enterococcus faecium. On the procedure: as §1, §2, §3
Data set [5] deals with Strept. pyogenes (308 A). Described as above. The following applies: Streptococcus pyogenes. As to the method: as §1, §2, §3
Data set [6] deals with Strept. pyogenes (77 A). Described as above. Particulars: Streptococcus pyogenes. As to the method:
as §1, §2, §3

In data set [7] the test system is Vaccina. The following applies: HeLa or Vero cells, 72 h CPE, about 50 % of the cells survive.
The subject of data set [8] is Herpes I. Particulars: HeLa or Vero cells, 72 h CPE, about 50 % of the cells survive.
The subject of data set [9] is Herpes II. Particulars: HeLa or Vero cells, 72 h CPE, about 50 % of the cells survive.
In data set [10] the test system is Influenza A. The following applies: HeLa or Vero cells, 72 h CPE, about 50 % of the cells survive.
Data set [11] deals with Rhinovirus II. The following applies: Rhino. II; HeLa or Vero cells, 72 h CPE; about 50 % of the cells survive.
The subject of data set [12] is HeLa- bzw. Vero-Zellen. Description: Maximum tolerated dose (DTM) in cell culture. Particulars: HeLa or Vero cells. On the procedure: Die Prüfsubstanzen wurden in Zellkulturmedium (Dulbecco's MEM) gelöst und in einer geometrischen Verdünnungsreihe, Faktor 3, in Standard-Mikrotiterplatten in 100 µl Zellkulturmedium vorgelegt. Anschließend erfolgte die Zugabe von 100 µl einer Suspension von HeLa- bzw. Vero-Zellen in Medium mit 5 % fötalem Kälberserum in einer Zelldichte von 2 x 10⁵ Zellen/ml. Die Ansätze wurden mit 50 µl einer Suspension des jeweiligen Test-Virus infiziert, die so eingestellt war, daß die Zellen innerhalb von 72 h einen cytopathogenen Effekt (CPE) zeigten. Die Auswertung erfolgte durch mikroskopische Begutachtung des Zellrasens und photometrische Messung der Neutralrotaufnahme (Farbtest nach Finter). Als MHK wurde die Konzentration des Präparats angenommen (µg/ml), bei der etwa 50 % der Zellen die Infektion überlebten.
In Spalte 9 ist die DTM (Dosis Tolerata Maxima) in µg/ml angegeben. Tabelle 4

The subject of data set [13] is Adeno 5. Particulars: HeLa or Vero cells, 72 h CPE, concentration at which about 50 % of the cells survive the infection.
The test system of data set [14] is Paramyxo. III. Particulars: HeLa or Vero cells, 72 h CPE, about 50 % of the cells survive.
The mark [15] stands for this setting: Staph. aureus (285), Müller Hinton Agar, 16 to 18 h at 37°C, read-out: MIC.
Where [16] appears, read: Staph. aureus (503), Müller Hinton Agar, 16 to 18 h at 37°C, read-out: MIC.
The mark [17] stands for this setting: Staph. aureus (SG 511), Müller Hinton Agar, 16 to 18 h at 37°C, lowest concentration that completely prevents growth, read-out: MIC.
Where [18] appears, read: Strept. faecium (D), Müller Hinton Agar, 16 to 18 h at 37°C, read-out: MIC.
[19] abbreviates: Strept. pyogenes (308 A), Müller Hinton Agar, 16 to 18 h at 37°C, read-out: MIC.
Setting [20] is: Strept. pyogenes (77 A), Müller Hinton Agar, 16 to 18 h at 37°C, read-out: MIC.

As for `COC1CC(CC2CCC(C)C(C(C)C(=O)O)O2)OC2(OC(C)(C3CCC(C)(C4OC(C5OC(O)(CCl)C(C)CC5C)CC4C)O3)CC2C)C1C` (stereo not shown) [Beispiel 2], the MIC (in general, the smallest concentration in the dilution series that meets the test's criterion for growth inhibition) in data set [1] (setting [15]) came out at 0.098 µg/mL (≈ 0.132 µM); in [2] (setting [16]), 0.025 µg/mL (≈ 0.0336 µM); in data set [3] (setting [17]) it was 0.098 µg/mL (≈ 0.132 µM); in [4] (setting [18]) it was 0.391 µg/mL (≈ 0.526 µM); in data set [5] (setting [19]), 0.013 µg/mL (≈ 0.0175 µM); in [6] (setting [20]) it was 0.007 µg/mL (≈ 0.00942 µM). The MHK in [7] is recorded as 0,49 µg/ml; in [8] it was 0,05 µg/ml; in data set [9], < 0,02 µg/ml; in [10], 0,05 µg/ml; in data set [11] it was 0,49 µg/ml. Also, in [12], the “DTM (Dosis Tolerata Maxima)” value is 1,48 µg/ml.

`COC1CC(CC2CCC(C)C(C(C)C(=O)O)O2)OC2(OC(C)(C3CCC(C)(C4OC(C5OC(O)(CBr)C(C)CC5C)CC4C)O3)CC2C)C1C` (stereo not shown) [Beispiel 3]: the MIC in data set [1] (setting [15]) was 0.013 µg/mL (≈ 0.0165 µM); in data set [2] (setting [16]) it was 0.007 µg/mL (≈ 0.00888 µM); in data set [3] (setting [17]) it was 0.013 µg/mL (≈ 0.0165 µM); in data set [4] (setting [18]), 0.098 µg/mL (≈ 0.124 µM); in data set [5] (setting [19]), under 0.002 µg/mL; in data set [6] (setting [20]), under 0.002 µg/mL. The MHK in [13] is listed as 0,01 µg/ml; in data set [8], 0,01 µg/ml; in [9], 0,3 µg/ml; in data set [10], 0,03 µg/ml; in data set [11], 0,3 µg/ml. The “DTM (Dosis Tolerata Maxima)” value in [12] was 0,89 µg/ml.

Turning to `COC1CC(CC2CCC(C)C(C(C)C(=O)O)O2)OC2(OC(C)(C3CCC(C)(C4OC(C5OC(O)(CSC#N)C(C)CC5C)CC4C)O3)CC2C)C1C` (stereo not shown) [Beispiel 4], the minimum inhibitory concentration (MIC) in [1] came out at 0.78 µg/mL (≈ 1.02 µM); in data set [2] it was 0.78 µg/mL (≈ 1.02 µM); in data set [4], 0.78 µg/mL (≈ 1.02 µM); in data set [5] it was 0.098 µg/mL (≈ 0.128 µM); in data set [6] it was 0.098 µg/mL (≈ 0.128 µM).

`COC1CC(CC2CCC(C)C(C(C)C(=O)O)O2)OC2(OC(C)(C3CCC(C)(C4OC(C5OC(O)(C[N+](=O)[O-])C(C)CC5C)CC4C)O3)CC2C)C1C` (stereo not shown) [Beispiel 5]: the MIC came to 0.049 µg/mL (≈ 0.065 µM) in [1] (setting [15]); 0.025 µg/mL (≈ 0.0332 µM) in data set [2] (setting [16]); 0.049 µg/mL (≈ 0.065 µM) in data set [3] (setting [17]); 0.098 µg/mL (≈ 0.13 µM) in data set [4] (setting [18]); 0.004 µg/mL (≈ 0.00531 µM) in [5] (setting [19]); 0.004 µg/mL (≈ 0.00531 µM) in data set [6] (setting [20]).

In the case of `COCC1(O)OC(C2CC(C)C(C3(C)CCC(C4(C)CC(C)C5(OC(CC6CCC(C)C(C(C)C(=O)O)O6)CC(OC)C5C)O4)O3)O2)C(C)CC1C` (stereo not shown) [Beispiel 7], the MIC in data set [1] (setting [15]) came out at 0.78 µg/mL (≈ 1.06 µM); in data set [2] (setting [16]), 0.39 µg/mL (≈ 0.528 µM); in data set [3] (setting [17]), 0.78 µg/mL (≈ 1.06 µM); in data set [4] (setting [18]) it was 3.13 µg/mL (≈ 4.24 µM); in data set [5] (setting [19]) it was 0.39 µg/mL (≈ 0.528 µM); in [6] (setting [20]), 0.19 µg/mL (≈ 0.257 µM). Besides, the MHK in data set [13] was 0,16 µg/ml; in [7], 0,49 µg/ml; in [8] it was 0,05 µg/ml; in [9], 0,05 µg/ml; in data set [10], 0,05 µg/ml; in data set [11], 1,48 µg/ml. Moreover, in data set [12], the “DTM (Dosis Tolerata Maxima)” value is recorded as 4,44 µg/ml.

On to `CCCCOCC1(O)OC(C2CC(C)C(C3(C)CCC(C4(C)CC(C)C5(OC(CC6CCC(C)C(C(C)C(=O)O)O6)CC(OC)C5C)O4)O3)O2)C(C)CC1C` (stereo not shown) [Beispiel 8], for which the MIC was determined as 1.56 µg/mL (≈ 2 µM) in data set [1] (setting [15]); 0.78 µg/mL (≈ 0.999 µM) in data set [2] (setting [16]); 0.78 µg/mL (≈ 0.999 µM) in data set [3] (setting [17]); 3.13 µg/mL (≈ 4.01 µM) in [4] (setting [18]); 0.19 µg/mL (≈ 0.243 µM) in data set [5] (setting [19]); 0.098 µg/mL (≈ 0.125 µM) in [6] (setting [20]). Moreover, the MHK in [13] is 0,16 µg/ml; in data set [7] it was 4,44 µg/ml; in data set [8], 4,44 µg/ml; in data set [9], 0,16 µg/ml; in data set [10] it was 0,05 µg/ml; in data set [14], 4,44 µg/ml. Moreover, in [11], the MHK is recorded as 4,44 µg/ml. In addition, the “DTM (Dosis Tolerata Maxima)” value in data set [12] is listed as 13,3 µg/ml.

Take `COC1CC(CC2CCC(C)C(C(C)C(=O)O)O2)OC2(OC(C)(C3CCC(C)(C4OC(C5OC(O)(CO[Si](c6ccccc6)(c6ccccc6)C(C)(C)C)C(C)CC5C)CC4C)O3)CC2C)C1C` (stereo not shown) [Beispiel 9]: the MIC in [1] was 0.78 µg/mL (≈ 0.81 µM); in data set [2], 0.78 µg/mL (≈ 0.81 µM); in data set [3], 0.78 µg/mL (≈ 0.81 µM); in [4] it was 0.7 µg/mL (≈ 0.727 µM); in data set [5], 0.025 µg/mL (≈ 0.026 µM); in data set [6], 0.025 µg/mL (≈ 0.026 µM). For the same compound, the MHK in data set [13] is given as 0,05 µg/ml; in data set [7], 4,44 µg/ml; in [8], 0,05 µg/ml; in [9] it was 0,05 µg/ml; in data set [10], 0,05 µg/ml; in data set [14], 4,44 µg/ml. Besides, the MHK in data set [11] is 4,44 µg/ml. The “DTM (Dosis Tolerata Maxima)” value in data set [12] is on record as 4,44 µg/ml.
